Test results as given in US20260097047A1, “Small molecule inhibitors of the ribosome biogenesis factor NVL2” (Board of Regents, The University of Texas System, priority 2023, published 2026).

System: HCT116 cells
Experiment: Cell viability assay (CellTiter-Glo, 72 hours) in HCT116 human colorectal cancer cells
Type: cell-based
Details: Homo sapiens, HCT-116; Table 5; HCT116, 72 hours; read-out: Activity
Summary of the method: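 2,000 cells/well adhered overnight, then compound added by digital dispenser with DMSO normalized to 0.5%. Viability read after 72 h at 37 °C by ATP-based CellTiter-Glo luminescence. IC50 from ten-point curves baseline-corrected to vehicle, five-parameter asymmetric least-squares fit.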

IC50 [nM] | Structure (SMILES)
< 500 | CC#CCN1C(=O)c2ccc(F)cc2Sc2cc(Nc3ncccc3C3CC3)ccc21 [10-(But-2-yn-1-yl)-7-((3-cyclopropylpyridin-2-yl)amino)-3-fluorodibenzo[b,f][1,4]thiazepin-11 (10H)-one]
< 500 | CC#CCN1C(=O)c2ccccc2Sc2cc(Nc3nc(C#N)ccc3C)ccc21 [6-((10-(But-2-yn-1-yl)-11-oxo-10,11-dihydrodibenzo[b,f][1,4]thiazepin-7-yl)amino)-5-methylpicolinonitrile]
1000 to 5000 | CC#CCN1C(=O)c2ccccc2Sc2cc(Nc3ncnc(C#N)n3)ccc21 [4-((10-(But-2-yn-1-yl)-11-oxo-10,11-dihydrodibenzo[b,f][1,4]thiazepin-7-yl)amino)-1,3,5-triazine-2-carbonitrile]
< 500 | CC#CCN1C(=O)c2ccccc2Sc2cc(Nc3nccc(C)c3F)ccc21 [10-(But-2-yn-1-yl)-7-((3-fluoro-4-methylpyridin-2-yl)amino)dibenzo[b,f][1,4]thiazepin-11 (10H)-one]

Same assay, conditions: Homo sapiens, HCT-116; Table 6; HCT116, 72 hours; read-out: Activity

IC50 [nM] | Structure (SMILES)
< 500 | CC#CCN1C(=O)c2ccccc2Sc2cc(NC3CC(COC)C3)cnc21 (centres unmarked) [Table 6: —CH2CCMe; 3-MeOCH2-cBu; CH/N; S, 11-(But-2-yn-1-yl)-3-((3-(methoxymethyl)cyclobutyl)amino)benzo[f]pyrido[3,2-b][1,4]thiazepin-10(11H)-one]

Same assay, conditions: Table 3; HCT116, 72 hours; read-out: Activity

IC50 [nM] | Structure (SMILES)
< 500 | CC#CCN1C(=O)c2ccccc2Sc2cc(NC(=O)NC34CC(OC)(C3)C4)cnc21
< 500 | CC#CCN1C(=O)c2ccccc2Sc2cc(NC(=O)N[C@H]3C[C@@H](O)C3)ccc21 [Table 3: —CH2CCMe; cis-3-OH-cBu; CH/CH]

Same assay, conditions: Table 5; HCT116, 72 hours; read-out: Activity

IC50 [nM] | Structure (SMILES)
< 500 | C#CCN1C(=O)c2ccccc2Sc2cc(Nc3nnccc3C)ccc21
< 500 | CC#CCN1C(=O)c2ccccc2Sc2cc(Nc3ncnc(C#N)c3C)cnc21

Same assay, conditions: Table 6; HCT116, 72 hours; read-out: Activity

Structure (SMILES) | IC50 [nM]
C#CCN1C(=O)c2ccccc2Sc2cc(NC3CC4(COC4)C3)cnc21 | < 500
CC#CCN1C(=O)c2ccccc2Sc2cc(NC3CCCOC3)cnc21 (centres unmarked) | < 500
CC#CCN1C(=O)c2ccccc2Sc2cc(NC3CC4(CC(=O)C4)C3)ccc21 | < 500

Continued, values first:

IC50 [nM] | Structure (SMILES)
< 500 | COC1CC(Nc2ccc3c(c2)Sc2ccccc2C(=O)N3CC#CCl)C1 (centres unmarked) [Table 6: —CH2CCCl; 3-MeOcBu; CH/CH; S]
< 500 | CC#CCN1C(=O)c2ccccc2Sc2cc(NC3CC4(CC(=O)C4)C3)cnc21

Same assay, conditions: Table 7; cell viability assay, CellTiter-Glo, 72 hours; scaffold drawing 42 with R^2, R^3, X/Y, Z; read-out: Activity

IC50 [nM] | Structure (SMILES)
1000 to 5000 | C#Cc1ccc(C(=O)Nc2ccc3c(c2)Sc2ccccc2C(=O)N3CCOC)cn1 [—(CH2)2OMe; 6-(HCC)pyrid-3-yl; CH/CH; S]
1000 to 5000 | COCCN1C(=O)c2ccccc2Sc2cc(NC(=O)c3ccc(F)c(F)c3)ccc21 [—(CH2)2OMe; 3,4-F2Ph; CH/CH; S]

Same assay, conditions: Table 8; analogs of scaffold drawing 43 defined by R^2, R^3, X/Y, W; read-out: Activity (IC50 class, cell viability assay)

Structure (SMILES) | IC50 [nM]
CC#CCN1C(=O)c2ccccc2Sc2cc(NC(=O)c3cccc(C(=O)N(C)C)c3)ccc21 [—CH2CCMe; 3-Me2NC(O)Ph; CH/CH; CH] | < 500
CC#CCN1C(=O)c2ccccc2Sc2cc(NC(=O)C3CCCCC3)cnc21 [—CH2CCMe; cHex; CH/CH; N] | < 500
CO[C@H]1C[C@H](C(=O)Nc2cnc3c(c2)Sc2ccccc2C(=O)N3CC#CC(F)(F)F)C1 [—CH2CCCF3; trans-3-MeOcBu; CH/CH; N] | < 500
CC#CCN1C(=O)c2ccccc2Sc2cc(NC(=O)C34CC(C3)C4)ccc21 | < 500
O=C1c2ccccc2Sc2cc(NC(=O)C34CC(C3)C4)cnc2N1CC#CC1CC1 | < 500

The next lines start with the values.

IC50 [nM] | Structure (SMILES)
< 500 | CC#CCN1C(=O)c2ccccc2Sc2cc(NC(=O)c3ccoc3)ccc21 [—CH2CCMe; furan-3-yl; CH/CH; CH]
< 500 | CC#CCN1C(=O)c2ccc(Cl)cc2Sc2cc(NC(=O)CCCO)ccc21 [—CH2CCMe; (CH2)3OH; CCl/CH; CH]

Same assay, conditions: Table 9; HCT116, 72 hours; read-out: Activity

IC50 [nM] | Structure (SMILES)
< 500 | COC1CC(C(=O)Nc2ccc3c(c2)C(C)c2ccccc2C(=O)N3CC#CC2CC2)C1 (centres unmarked)
< 500 | C#CCN1C(=O)c2ccccc2C(C#N)c2cc(NC(=O)C3CC(COC)C3)ccc21 (centres unmarked) [Table 9: —CH2CCH; 3-MeOCH2-cBu; CHCN]
< 500 | C#CCN1C(=O)c2ccccc2C(C#N)c2cc(NC(=O)[C@H]3C[C@H](OC)C3)ccc21 (stereo partly drawn) [Table 9: —CH2CCH; trans-3-MeOcBu; CHCN]
